Tests used:
full-length human PDE4A4 = target: T1, full-length human PDE4A4 (Homo sapiens, UniProt P27815); assay: PDE4 radio-assay, PDE4A4 long form activation (Experiment 1); assay type: biochemical; conditions: n ≥ 2
T1 construct: stably expressed the full-length human PDE4D5, PDE4A4 and PDE4B1 long isoforms; made in house; cytosol fraction of the lysate
Method: (§1) One suitable method of detecting whether or not a compound is capable of serving as an activator of a PDE4 long form is using a two-step radio-assay procedure described in Experiment 1. In summary, the method involves incubating a PDE4 long form with a test small molecule activator, together with [^3H]-labelled cAMP to assess alterations in the breakdown of cAMP to the 5′-adenosine monophosphate (5′-AMP) product. A sample of the reaction mixture from such an incubation is subsequently treated with snake venom 5′-nucleotidase to allow conversion of the nucleotide [^3H]-labelled 5′-AMP to the uncharged nucleoside [^3H]-labelled adenosine, which can be separated and quantified to assess PDE4 activity and the effect of the test compound (Thompson, W. J. and Appleman, M. M. Biochemistry 10: 311-316, 1971, with some modifications as described in: Marchmont, R. J. and Houslay, M. D. Biochem J. 187: 381-92, 1980).
(§2) HEK 293 cells were transfected with pDEST™ PDE4 expression vectors using Lipofectamine LTX/Plus reagent (Invitrogen) as outlined by the manufacturer and clonal isolates expanded to obtain cell lines that stably expressed the full-length human PDE4D5, PDE4A4 and PDE4B1 long isoforms and the full length human PDE4B2 short isoform. These were called the HEK-PDE4D5, HEK-PDE4A4, HEK-PDE4B1 and HEK-PDE4B2 cell lines, respectively.
(§3) HEK-PDE4D5 cells were seeded out in 100 mm plates and incubated at 37° C. in an atmosphere of 5% CO2, 95% air. Cell lysates were prepared using KHEM buffer [50 mM KCl, 10 mM EGTA, 50 mM HEPES (pH 7.2), 1.92 mM MgCl2].
(§4) To prepare the cell lysates, the 100 mm plates containing the cells were placed on ice and washed with ice-cold PBS (phosphate buffered saline, pH 7.4). KHEM buffer (500 μl) was added to the cells. Cells were then scraped off the plate and triturated using a needle (BD Microlance™ 0.8, 40 mm). The lysed cells were then centrifuged at 2000 rpm for 10 minutes to remove cell debris and the supernatant (cell lysate containing recombinant PDE4D5) was transferred to a fresh tube and kept on ice.
(§5) The cell lysate containing recombinant PDE4D5 was transferred into a centrifuge tube and placed into an ultracentrifuge (BECKMAN COULTER) and spun at high speed (100,000 g) for 30 minutes at 4° C. The cytosol fraction was then collected and its protein amount determined using a BCA protein assay.
PDE assays were performed using a final concentration of 10 mM Tris/5 mM MgCl2 and 1 μM [3H]-cAMP (Perkin Elmer) plus PDE4D5 cell lysate cytosol fraction, containing over-expressed PDE4D5, with and without test compound. Incubations were performed at 30° C. for 5 minutes. The samples were then placed in a boiling water bath for 2 minutes to denature the PDE enzyme, and returned to ice. Samples were allowed to cool for 1.0 min after which snake venom 5′-nucleotidase (25 μl, 1 mg/ml; Sigma) was added. The tubes were vortexed and incubated in a water bath at 30° C. for 10 minutes, to attain conversion of [3H]-5′-AMP to [3H]-adenosine, and then placed on ice. Dowex ion exchange resin (Sigma) prepared as a 1:1 Dowex:water stock was thoroughly re-suspended and diluted 2:1 with ethanol. The resulting Dowex suspension (0.4 ml) was added to each tube. Tubes were vortexed to mix and then incubated on ice for at least 15 minutes before a final vortex. […] Tubes were vortexed thoroughly to mix and the recovered [3H]-adenosine was quantified by measuring counts over 1 minute in a scintillation counter.

[1] = target: T2, full length human PDE4B2 short isoform (Homo sapiens, UniProt Q07343); assay: PDE4 radio-assay, PDE4B2 short form (Experiment 1); assay type: biochemical; conditions: method of Experiment 1; FIG. 4
T2 construct: the full length human PDE4B2 short isoform; made in house; cytosol fraction of the lysate
Method: as §1, §2, §3, §4, §5
PDE assays were performed using a final concentration of 10 mM Tris/5 mM MgCl2 and 1 μM [3H]-cAMP (Perkin Elmer) plus PDE4D5 cell lysate cytosol fraction, containing over-expressed PDE4D5, with and without test compound. Incubations were performed at 30° C. for 5 minutes. […] Tubes were vortexed thoroughly to mix and the recovered [3H]-adenosine was quantified by measuring counts over 1 minute in a scintillation counter.

MDCK cells = assay: Reversal of in vitro cyst formation in MDCK cells (Experiment 4); assay type: cell-based, canine; conditions: compound added every 2 days from day 10 to day 20, with forskolin and vasopressin; FIG. 8
Method: In this study, the potential of PDE4 long form activators to reverse the formation of pre-formed cysts was evaluated. The experiment was carried out according to the method of Experiment 3. For the first 10 days, forskolin and vasopressin were added at every feed (every 2 days) but no test compound was added. For the next 10 days, the test compound, forskolin and vasopressin were added at every feed (every 2 days).
Phase-contrast images were obtained on the Motic microscope (×200 magnification) every 2 days for 20 days. Per condition, 10 images were taken (in duplicate) and the average cyst radius measured.

[2] = system: androgen-sensitive (AS) LNCaP human prostate cancer cells; assay: Xcelligence proliferation assay, androgen-sensitive LNCaP cells (Experiment 5); assay type: cell-based; conditions: normalised cell index at 72 hours; FIG. 9
Method: In this study, the potential utility of PDE4 long form activators in the treatment of prostate cancer was studied using the LNCaP human prostate cancer cell line. The experiments were carried out according to the method described by Henderson et al. (Henderson, D. J. P., Byrne, A., Dulla, K., Jenster, G., Hoffmann, R., Baillie, G. S., Houslay, M. D. Br. J. Cancer 110: 1278-1287, 2014).
Androgen-sensitive (AS) LNCaP cells were maintained in RPMI1640 supplemented with 10% FBS (Seralabs), 2 mM L-glutamine and 1,000 U penicillin-streptomycin. LNCaP androgen-insensitive (AI) cells were generated in-house by culturing the LNCaP-AS cells in RPMI1640 supplemented with 10% charcoal stripped FBS, 2 mM L-glutamine and 1,000 U penicillin-streptomycin for a minimum of four weeks. All tissue culture reagents were, from Life Technologies.
Cell proliferation is measured as a function of changing electrical impedance. Values are represented by cell index number, a dimensionless unit of measurement representing the cell status, which increases as cells adhere to 96-well electrode plates and divide. […]
Cell indices were measured every 10 minutes for up to 100 hours, analysed using RICA software and normalised to the cell index of vehicle-treated cells (n=3).

T1 sequence (P27815 whole entry, canonical isoform): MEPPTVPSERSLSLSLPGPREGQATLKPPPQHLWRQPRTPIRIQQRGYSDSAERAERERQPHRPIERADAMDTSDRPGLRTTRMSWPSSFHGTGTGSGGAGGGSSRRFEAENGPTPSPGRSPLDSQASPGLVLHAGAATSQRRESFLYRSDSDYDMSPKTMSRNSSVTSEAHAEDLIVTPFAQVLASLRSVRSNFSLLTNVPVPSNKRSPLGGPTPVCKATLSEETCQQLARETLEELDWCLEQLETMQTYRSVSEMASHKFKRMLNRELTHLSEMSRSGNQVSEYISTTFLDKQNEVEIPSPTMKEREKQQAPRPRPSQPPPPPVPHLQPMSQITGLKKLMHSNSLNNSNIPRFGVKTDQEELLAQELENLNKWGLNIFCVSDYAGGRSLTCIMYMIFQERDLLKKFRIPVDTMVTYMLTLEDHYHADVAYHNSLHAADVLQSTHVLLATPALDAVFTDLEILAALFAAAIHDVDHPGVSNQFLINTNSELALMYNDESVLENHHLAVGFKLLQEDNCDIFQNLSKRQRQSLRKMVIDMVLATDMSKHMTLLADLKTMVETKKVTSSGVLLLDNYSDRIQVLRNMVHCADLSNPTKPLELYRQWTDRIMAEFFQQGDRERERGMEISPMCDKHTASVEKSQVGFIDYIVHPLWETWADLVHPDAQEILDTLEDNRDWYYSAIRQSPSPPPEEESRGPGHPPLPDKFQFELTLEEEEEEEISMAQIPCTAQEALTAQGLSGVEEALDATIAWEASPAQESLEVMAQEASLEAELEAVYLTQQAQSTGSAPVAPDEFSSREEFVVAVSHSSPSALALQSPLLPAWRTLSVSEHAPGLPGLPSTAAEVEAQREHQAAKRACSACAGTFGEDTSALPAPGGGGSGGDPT
T2 sequence (Q07343 1-564 isoform Q07343-2): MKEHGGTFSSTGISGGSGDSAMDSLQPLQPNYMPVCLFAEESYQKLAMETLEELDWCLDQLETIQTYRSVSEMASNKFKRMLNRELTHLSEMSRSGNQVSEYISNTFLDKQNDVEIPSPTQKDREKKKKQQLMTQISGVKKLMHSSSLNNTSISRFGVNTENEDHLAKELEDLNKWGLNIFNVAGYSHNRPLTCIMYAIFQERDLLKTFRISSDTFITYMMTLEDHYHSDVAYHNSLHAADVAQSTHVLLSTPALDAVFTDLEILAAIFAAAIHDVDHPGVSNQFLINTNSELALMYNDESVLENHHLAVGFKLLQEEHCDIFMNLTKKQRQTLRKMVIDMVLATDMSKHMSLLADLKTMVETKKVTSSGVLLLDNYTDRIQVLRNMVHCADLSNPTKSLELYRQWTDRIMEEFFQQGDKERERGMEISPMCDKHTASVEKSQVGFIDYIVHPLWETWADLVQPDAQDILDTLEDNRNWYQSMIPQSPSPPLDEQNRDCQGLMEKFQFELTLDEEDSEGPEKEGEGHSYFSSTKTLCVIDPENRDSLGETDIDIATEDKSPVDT

PDE4A4 activity (mean % increase in counts over basal activity without added compound) (full-length human PDE4A4; 1 μM compound): 1.1%
PDE4A4 activity (mean % increase in counts over basal activity without added compound) (full-length human PDE4A4; 3 μM compound): 2.7%
PDE4A4 activity (mean % increase in counts over basal activity without added compound) (full-length human PDE4A4; 10 μM compound): 10.4%
PDE4A4 activity (mean % increase in counts over basal activity without added compound) (full-length human PDE4A4; 30 μM compound): 38.5%
PDE4A4 activity (mean % increase in counts over basal activity without added compound) (full-length human PDE4A4; 50 μM compound): 65.4%
activation of PDE4B2, a short form of PDE4 (in words) [1]: lack of activation
Structure (SMILES): CCc1nc(-c2ccc(Cl)c(F)c2)nn1CC(=O)NCc1cccc(F)c1 [Example A, N-(3-Fluorobenzyl)-2-[3-(4-chloro-3-fluorophenyl)-5-ethyl-1H-1,2,4-triazol-1-yl]acetamide]
in vitro cyst formation in MDCK cells, reversal (in words) (MDCK cells): reversal of in vitro cyst formation
proliferation of androgen-sensitive (AS) LNCaP cells (in words) [2]: inhibits the proliferation
